Publication PMC5381205, “A Clinically Relevant Variant of the Human Hydrogen Sulfide-Synthesizing Enzyme Cystathionine β-Synthase: Increased CO Reactivity as a Novel Molecular Mechanism of Pathogenicity?” (Oxidative Medicine and Cellular Longevity, 2017)
Residue numbers refer to the chain shown, from its start. “And” between values parts separate entries of the source, which are not always exact repeats. Equal values may be shown once. Read-outs that look alike come from different tables or passages of the source. Each block holds one molecule with its values, some of them ahead of it.

Assays:
[1] = biological target: T1, human WT CBS (ferrous heme) (Homo sapiens, UniProt P35520); experiment: Stopped-flow kinetics of CO binding to ferrous WT CBS; settings: WT enzyme
T1 construct: employed in this study, corresponding to full-length CBS WT and p.P49L purified in the absence; made in house
T1 sequence (P35520 1-551): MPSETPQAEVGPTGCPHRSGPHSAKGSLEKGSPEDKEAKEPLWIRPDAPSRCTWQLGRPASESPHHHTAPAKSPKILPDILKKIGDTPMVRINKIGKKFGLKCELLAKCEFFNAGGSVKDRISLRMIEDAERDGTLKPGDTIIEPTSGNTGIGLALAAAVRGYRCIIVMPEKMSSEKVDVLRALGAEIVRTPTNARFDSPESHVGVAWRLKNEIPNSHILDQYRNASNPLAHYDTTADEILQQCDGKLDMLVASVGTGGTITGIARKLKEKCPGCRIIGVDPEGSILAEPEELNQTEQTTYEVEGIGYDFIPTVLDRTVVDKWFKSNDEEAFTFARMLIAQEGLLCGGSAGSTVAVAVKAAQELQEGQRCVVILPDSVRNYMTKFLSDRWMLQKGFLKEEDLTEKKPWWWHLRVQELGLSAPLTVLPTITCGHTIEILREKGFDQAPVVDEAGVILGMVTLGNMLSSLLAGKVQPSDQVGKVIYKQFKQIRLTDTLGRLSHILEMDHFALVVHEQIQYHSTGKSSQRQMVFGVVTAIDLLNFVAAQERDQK

[2] = biological target: T2, human CBS p.P49L (ferrous heme) (Homo sapiens, UniProt P35520, P49L); experiment: Stopped-flow kinetics of CO binding to ferrous CBS p.P49L; settings: for CO binding fitted rate constant k2 / CO binding fitted rate constant k1 / CO binding fitted rate constant k3: 1 mM CO, 25°C; for CO binding fitted rate constant k2: 30% reaction amplitude
T2 construct: Recombinant full-length human CBS p.P49L was expressed and purified; made in house; host or cells: E. coli
T2 sequence (P35520 1-551 P49L): T1 sequence (P35520 1-551) with P49L
Experimental: (§1) Time-resolved absorption spectroscopy experiments were carried out in a thermostated stopped-flow instrument (DX.17MV, Applied Photophysics), equipped with a photodiode-array (light path, 1 cm). To avoid light-induced artifacts, the intensity of the white-light incident beam was decreased and a filter cutting UV light at λ < 360 nm was employed. Absorption spectra were recorded with an acquisition time of 10 ms per spectrum according to a logarithmic time scale. All reactions were carried out at 25°C in buffer A. CBS p.P49L was thoroughly flushed with nitrogen, after which glucose oxidase (4 units·ml^−1), catalase (13 μg·ml^−1), superoxide dismutase (12 units·ml^−1), and glucose (3 mM) were added to scavenge oxygen, hydrogen peroxide, and superoxide anion. The protein was then placed on ice, protected from light to prevent possible damaging photoreactions. When indicated, CBS p.P49L was incubated with AdoMet for ≥10 minutes, prior to reduction with 90 µM sodium dithionite. CO association kinetics were studied by mixing in the stopped-flow apparatus reduced CBS p.P49L, in the absence or presence of AdoMet, with CO solutions and the spectra recorded over time. CO dissociation kinetics were evaluated by mixing the Fe(II)-CO adduct of CBS p.P49L with NO• stock solutions, prepared by equilibrating degassed ultra-pure water with NO• gas at 1 atm, further kept on ice protected from light.
(§2) CO affinity titrations and CO binding and dissociation kinetic data were analyzed with the software MATLAB (Mathworks). Global fit analysis of spectral data was performed by singular value decomposition analysis combined with curve fitting.

recombinant human WT CBS [3] = biological target: T3, recombinant human WT CBS (Homo sapiens, UniProt P35520); settings: isolated proteins and bacterial or human cell lysates; cited from earlier work
T3 construct: employed in this study, corresponding to full-length CBS WT and p.P49L purified in the absence; made in house
T3 sequence (P35520 1-551): T1 sequence (P35520 1-551)

[4] = biological target: T4, recombinant human CBS p.P49L (Homo sapiens, UniProt P35520, P49L); experiment: H2S synthesis assay (amperometric and lead acetate methods), CBS p.P49L; assay type: biochemical; settings: 37°C; for H2S-synthesizing activity stimulation by AdoMet: 500 μM AdoMet
T4 construct: Recombinant full-length human CBS p.P49L was expressed and purified; made in house; host or cells: E. coli
T4 sequence (P35520 1-551 P49L): T1 sequence (P35520 1-551) with P49L
Experimental: (§3) H2S production by recombinant human CBS variants was measured at 37°C, either by amperometry using a H2S-selective electrode (World Precision Instruments) or by the lead acetate method. Purified CBS (0.5–1 μM) was incubated for 10 minutes with 50 μM PLP, 260 U/ml catalase, and 0.4–2.0 mM homocysteine in the absence or presence of 0.5 mM AdoMet, after which 10 mM cysteine was added to trigger the reaction. Amperometric assays were performed using an ISO-H2S-2 hydrogen sulfide sensor coupled to an Apollo 4000 Free Radical Analyzer (World Precision Instruments). After recording H2S production for 3 minutes, the electrode was internally calibrated by adding 4 μM NaHS (corresponding to 2 μM H2S at pH 7.0). Finally, 50 μM o-acetylserine and 200 nM Entamoeba histolytica o-acetylserine sulfhydrylase were added to the reaction mixture to remove H2S from solution and bring the signal back to baseline. Activity assays by the lead acetate method were carried out in a thermostated cuvette under stirring, according to [5]. Lead acetate (400 μM) was added to the reaction mix prior to cysteine addition and H2S production monitored at 390 nm in an Agilent Cary-60 spectrophotometer.

recombinant human WT CBS [5] = biological target: T3, recombinant human WT CBS; experiment: H2S synthesis assay (amperometric and lead acetate methods), WT CBS; assay type: biochemical; settings: for H2S-synthesizing activity stimulation by AdoMet: 500 μM AdoMet, 37°C
Experimental: as §3

[6] = biological target: T5, human CBS p.P49L Fe(II)-CO adduct (Homo sapiens, UniProt P35520, P49L); experiment: Stopped-flow kinetics of CO dissociation (displacement by NO•) from CBS p.P49L; assay type: binding; settings: for CO displacement by NO• rate constant k2: 25% reaction amplitude
T5 construct: Recombinant full-length human CBS p.P49L was expressed and purified; made in house; host or cells: E. coli
T5 sequence (P35520 1-551 P49L): T1 sequence (P35520 1-551) with P49L
Experimental: as §1, §2

[7] = biological target: T2, human CBS p.P49L (ferrous heme); experiment: Anaerobic CO titrations of reduced CBS p.P49L (UV-visible absorption); assay type: binding; settings: 20°C
Experimental: UV-visible absorption spectra of oxidized and reduced CBS p.P49L and WT were recorded in an Agilent Cary-60 spectrophotometer. Anaerobic titrations of reduced CBS p.P49L with CO were performed at 20°C in an Agilent Cary-60 or a Shimadzu UVPC-1800 spectrophotometer. Gas exchange was prevented either by filling the quartz cuvette and sealing it with a rubber-cap or by adding mineral oil on top of the aqueous medium. Anaerobic conditions were ensured by nitrogen flushing and addition of glucose oxidase (4 units·ml^−1), catalase (13 μg·ml^−1), superoxide dismutase (12 units·ml^−1), and glucose (3 mM) to scavenge contaminant oxygen, hydrogen peroxide, and superoxide anion. CBS p.P49L and WT (1.4–1.6 μM in heme) were reduced with 90 μM sodium dithionite, diluted from a 45 mM stock solution (quantitated using ε314 nm = 8,043 M^−1·cm^−1 [50]). CO stock solutions were prepared by equilibrating thoroughly degassed buffer A with the pure gas at 1 atm, yielding 1 mM CO at 20°C. After each CO addition with gas-tight Hamilton syringes, the spectral changes were visually inspected in real time and a new addition was immediately made when no more changes were observed.
According to [16, 19, 20, 51], two apparent Kd (Kd1 and Kd2) were used to satisfactorily fit the CO affinity data. The Kd1 and Kd2 values were obtained by fitting the data to (1), where PL is the concentration of CO-bound CBS p.P49L, PT and LT are, respectively, the total CBS p.P49L and CO concentrations, and α1 and α2 are, respectively, the protein fractions binding CO at higher (Kd1) and lower (Kd2) affinity. (1) PL=α1PT+LT+Kd1−PT+LT+Kd1^2−4PTLT+α2PT+LT+Kd2−PT+LT+Kd2^2−4PTLT/2.
as §2

[8] = biological target: T6, human WT CBS Fe(II)-CO adduct (Homo sapiens, UniProt P35520); experiment: Stopped-flow kinetics of CO dissociation (displacement by NO•) from WT CBS; assay type: binding; settings: WT enzyme; NO• 900 µM after mixing; 75% relative amplitude; data not shown
T6 construct: employed in this study, corresponding to full-length CBS WT and p.P49L purified in the absence; made in house
T6 sequence (P35520 1-551): T1 sequence (P35520 1-551)

[9] = AdoMet-bound CBS p.P49L, 35% reaction amplitude

- fold increase in the CO association rate in the presence of AdoMet [1]: ~ 2 fold
- fold increase in the CO association rate in the presence of AdoMet ([2]; p.P49L variant): ~ 4.5 fold
- H2S-synthesizing activity stimulation by AdoMet ([4]; p.P49L purified in the absence of PLP (PLP-untreated)): 1.4 fold
- H2S-synthesizing activity stimulation by AdoMet ([4]; p.P49L purified in the presence of 20 μM PLP (PLP-treated)): 1.1 fold
- AdoMet activation factor observed for the WT enzyme (recombinant human WT CBS [5]; WT enzyme, overall): ≤ 2 fold
- H2S-synthesizing activity stimulation by AdoMet (recombinant human WT CBS [5]; WT purified in the absence of PLP (PLP-untreated)): 1.5 fold
- H2S-synthesizing activity stimulation by AdoMet (recombinant human WT CBS [5]; WT purified in the presence of 20 μM PLP (PLP-treated)): 1.9 fold
SMILES: C[S+](CC[C@H](N)C(=O)[O-])C[C@H]1O[C@@H](n2cnc3c(N)ncnc32)[C@H](O)[C@@H]1O (stereo partly drawn) [AdoMet, S-Adenosyl-L-methionine]
- AdoMet activation factor of CBS enzymatic activity, as usually reported (recombinant human WT CBS [3]): 2–5 fold

SMILES: [C-]#[O+] [CO, Carbon monoxide]
- CO displacement by NO• rate constant k2 ([6]; AdoMet-bound CBS p.P49L (500 μM before mixing), 900 μM NO•, Figure 5(b) fit): 0.038 s⁻¹
- CO displacement by NO• rate constant k1 ([6]; AdoMet-bound CBS p.P49L (500 μM before mixing), 900 μM NO•, 75% reaction amplitude, Figure 5(b) fit): 1.96 s⁻¹
- CO displacement by NO• rate constant k2 ([6]; AdoMet-free CBS p.P49L, 900 μM NO•, Figure 5(b) fit): 0.035 s⁻¹
- CO displacement by NO• rate constant k1 ([6]; AdoMet-free CBS p.P49L, 900 μM NO•, 75% reaction amplitude, Figure 5(b) fit): 1.93 s⁻¹
- CO displacement by NO• rate constant k1 ([6]; CBS p.P49L, NO• 900 µM after mixing, 75% relative amplitude, no effect of AdoMet): 2.0 ± 0.1 s⁻¹
- CO binding fitted rate constant k2 ([2]; AdoMet-bound CBS p.P49L): 0.26 s⁻¹
- CO binding fitted rate constant k1 [2, 9]: 2.55 s⁻¹
- CO binding fitted rate constant k3 [2, 9]: 0.022 s⁻¹
- CO binding fitted rate constant k1 ([2]; AdoMet-free CBS p.P49L, 25% reaction amplitude): 0.48 s⁻¹
- CO binding fitted rate constant k2 ([2]; AdoMet-free CBS p.P49L): 0.05 s⁻¹
- CO binding fitted rate constant k3 ([2]; AdoMet-free CBS p.P49L, 45% reaction amplitude): 0.006 s⁻¹
- Kd ([7]; AdoMet-bound p.P49L CBS (500 μM AdoMet), 30% relative amplitude, read-out: KdCO,2): 1.5 µM and 2.1 µM
- Kd ([7]; AdoMet-bound p.P49L CBS (500 μM AdoMet), 70% relative amplitude, upper limit, read-out: KdCO,1): ≤ 0.03 µM
- Kd ([7]; AdoMet-free p.P49L CBS, higher-affinity fraction, 60% relative amplitude, read-out: KdCO,1): 0.06 µM and 0.05 µM
- Kd ([7]; AdoMet-free p.P49L CBS, lower-affinity fraction, 40% relative amplitude, read-out: KdCO,2): 21 µM and 22 µM
- CO displacement by NO• rate constant k1 [8]: 2.0 ± 0.1 s⁻¹

- basal H2S-synthesizing activity of p.P49L after PLP supplementation along the purification ([4]; p.P49L purified in the presence of 20 μM PLP (PLP-treated), compared with WT): basal activity similar to the WT enzyme
SMILES: Cc1ncc(COP(=O)(O)O)c(C=O)c1O [PLP, Pyridoxal 5′-phosphate]
